Assay results as given in the supplement of paper PMC9244889.
Where a name gives a salt, the structure may show the parent alone. ± gives the standard deviation of the averaged measurements.

How the values were obtained:
Vero E6 [1] = assay: inhibition of SARS-CoV-2-induced cytopathic effect relative to cell and virus controls; higher = more antiviral protection; details: 72 h, virus: SARS-CoV-2 propagated original strain, 100 TCID50, assay detail: infected
Description: (§1)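 Vero E6 C1008 cells (2e4 cells/well) were treated with a 3-fold dilution series of each drug (monotherapy), with or without live SARS-CoV-2 (propagated original strain, 100 TCID50). After 72 h at 37 °C, viability was read with Viral ToxGlo (ATP luminescence). %Inhibition of virus-induced CPE and %Cytotoxicity (uninfected) were normalised to cell and virus controls. Triplicates. The paper excluded %Inhibition points with >25% cytotoxicity from its curve fits.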

Vero E6 [2] = assay: cytotoxicity relative to untreated cell control; higher = more toxic; details: 72 h, assay detail: uninfected
Description: as §1

Cc1ccc(NC(=O)c2ccc(CN3CCN(C)CC3)cc2)cc1Nc1nc(-c2cccnc2)cs1 [masitinib]
Details	cytotoxicity, Vero E6 [2] [%]	inhibition of SARS-CoV-2-induced cytopathic effect, Vero E6 [1] [%]
0.000564503 µM	-15.3 ± 2.6	0.87 ± 1.3
0.00169351 µM	-17.5 ± 0.9	1.03 ± 1.1
0.00508053 µM	-21.6 ± 3.5	2.14 ± 0.47
0.0152416 µM	-16.3 ± 4.9	1.2 ± 1.5
0.0457247 µM	-19.4 ± 3	0.66 ± 1.1
0.137174 µM	-17.8 ± 2.7	0.458 ± 1.5
0.411523 µM	-19.8 ± 5.5	3.69 ± 0.53
1.23457 µM	-15.2 ± 4.2	8.75 ± 0.71
3.7037 µM	4.4 ± 13	42.8 ± 1.8
11.1111 µM	83.4 ± 11	18.1 ± 21
33.3333 µM	99.617 ± 0.081	-7.42 ± 6.3
100 µM	99.831 ± 0.086	-17.86 ± 0.079

N=C(N)Nc1ccc(C(=O)Oc2ccc3cc(C(=N)N)ccc3c2)cc1 [nafamostat mesylate]
Details	cytotoxicity, Vero E6 [2] [%]	inhibition of SARS-CoV-2-induced cytopathic effect, Vero E6 [1] [%]
56.45 pM	-10.2 ± 4.1	1.36 ± 1.7
0.000169351 µM	-7.59 ± 5.1	0.555 ± 1.7
0.000508053 µM	-1.77 ± 3.8	1.31 ± 0.69
0.00152416 µM	-4.85 ± 5.8	0.363 ± 1.7
0.00457247 µM	-6 ± 3.4	0.453 ± 0.75
0.0137174 µM	-9.55 ± 4.7	0.391 ± 0.79
0.0411523 µM	-7.66 ± 5.3	-0.525 ± 0.42
0.123457 µM	-5.32 ± 5.3	-0.383 ± 1.8
0.37037 µM	1.08 ± 5.1	0.358 ± 1.1
1.11111 µM	-2.6 ± 0.66	0.841 ± 1.3
3.33333 µM	1.59 ± 3.9	0.526 ± 2.5
10 µM	-0.485 ± 4.2	-0.288 ± 0.41

CCC(CC)COC(=O)[C@H](C)N[P@](=O)(OC[C@H]1O[C@@](C#N)(c2ccc3c(N)ncnn23)[C@H](O)[C@@H]1O)Oc1ccccc1 [remdesivir]
Details	cytotoxicity, Vero E6 [2] [%]	inhibition of SARS-CoV-2-induced cytopathic effect, Vero E6 [1] [%]
0.000564503 µM	-22.9 ± 4.1	1.31 ± 1.9
0.00169351 µM	-17.3 ± 2.8	1.17 ± 0.74
0.00508053 µM	-11.8 ± 6.1	-0.59 ± 0.81
0.0152416 µM	-6.94 ± 3.5	-0.693 ± 1.3
0.0457247 µM	-6.5 ± 3.1	-0.335 ± 1.3
0.137174 µM	-4.51 ± 2.7	1.45 ± 0.34
0.411523 µM	-1.99 ± 0.16	6.62 ± 3.8
1.23457 µM	-7.93 ± 3.3	42.2 ± 5.1
3.7037 µM	-2.61 ± 1.9	111 ± 7.7
11.1111 µM	2.25 ± 3.5	108 ± 4.2
33.3333 µM	9.25 ± 4.1	96.6 ± 6.4
100 µM	59.6 ± 2.2	44.1 ± 1.2

CC(C)c1nc(CN(C)C(=O)N[C@H](C(=O)N[C@@H](Cc2ccccc2)C[C@H](O)[C@H](Cc2ccccc2)NC(=O)OCc2cncs2)C(C)C)cs1 [ritonavir]
Details	cytotoxicity, Vero E6 [2] [%]	inhibition of SARS-CoV-2-induced cytopathic effect, Vero E6 [1] [%]
0.00112901 µM	-15.2 ± 3.3	2.5 ± 0.64
0.00338702 µM	-13.3 ± 7.5	3.51 ± 1.5
0.0101611 µM	-27.3 ± 7.8	1.73 ± 1
0.0304832 µM	-22.5 ± 5.2	0.79 ± 0.69
0.0914495 µM	-33.3 ± 7.1	2.39 ± 0.89
0.274348 µM	-28.6 ± 2.6	0.802 ± 1.1
0.823045 µM	-22 ± 5.3	1.81 ± 1.6
2.46914 µM	-21.4 ± 2.2	1.96 ± 0.96
7.40741 µM	-27.3 ± 11	2.22 ± 0.63
22.2222 µM	-38.7 ± 3.8	7.59 ± 2.9
66.6667 µM	8.14 ± 47	2.75 ± 1.2
200 µM	69.7 ± 22	-2.18 ± 7.1

O=C(/C=C\n1cnc(-c2cc(C(F)(F)F)cc(C(F)(F)F)c2)n1)NNc1cnccn1 [selinexor]
Details	cytotoxicity, Vero E6 [2] [%]	inhibition of SARS-CoV-2-induced cytopathic effect, Vero E6 [1] [%]
0.000564503 µM	14.6 ± 0.87	1.79 ± 1.5
0.00169351 µM	14.9 ± 1.5	0.365 ± 1.9
0.00508053 µM	7.61 ± 4.3	-1.85 ± 0.84
0.0152416 µM	7.88 ± 6.2	-2.96 ± 0.59
0.0457247 µM	29.1 ± 9.4	-4.3 ± 0.17
0.137174 µM	23.4 ± 5.1	-3.81 ± 0.77
0.411523 µM	35.6 ± 7.9	-3.25 ± 0.52
1.23457 µM	47.2 ± 4.6	-2.87 ± 0.28
3.7037 µM	48.93 ± 0.45	-1.23 ± 0.55
11.1111 µM	44.1 ± 5.4	8.51 ± 1
33.3333 µM	89.1 ± 5.9	-1.32 ± 1.1
100 µM	99.74 ± 0.26	-15.08 ± 0.053

CCC[C@H](NC(=O)[C@@H]1[C@H]2CCC[C@H]2CN1C(=O)[C@@H](NC(=O)[C@@H](NC(=O)c1cnccn1)C1CCCCC1)C(C)(C)C)C(=O)C(=O)NC1CC1 [telaprevir]
Details	cytotoxicity, Vero E6 [2] [%]	inhibition of SARS-CoV-2-induced cytopathic effect, Vero E6 [1] [%]
0.000564503 µM	0.259 ± 1.2	0.117 ± 1.5
0.00169351 µM	-0.00145 ± 0.65	1.28 ± 0.57
0.00508053 µM	-4.54 ± 0.81	-0.629 ± 1.3
0.0152416 µM	-3.42 ± 5.8	-0.222 ± 1.2
0.0457247 µM	-3.36 ± 3	0.129 ± 1.5
0.137174 µM	-8.35 ± 1.5	-0.93 ± 0.51
0.411523 µM	-3.53 ± 0.71	-0.643 ± 0.94
1.23457 µM	-4.1 ± 2.4	1.01 ± 2
3.7037 µM	-6.16 ± 4	0.773 ± 1.4
11.1111 µM	-1.51 ± 1.7	0.394 ± 1.7
33.3333 µM	17.2 ± 0.76	-2.07 ± 0.9
100 µM	80.5 ± 10	17.4 ± 5.8
